# Assay results as given in ChEMBL document CHEMBL5724914, “Linking interpersonal differences in gut microbiota composition and drug biotransformation activity” (2024).
# Tests used:
# [1] = (§1) The drug is tested on Z-025 corresponding to rabbit gut metagenome with ENA study accession number: PRJEB37062 and ENA sample accession number: ERS12561824 for biotransformation under anaerobic condition. The drug concentrations were measured over 9 timepoints collected between 0 and 24 hours of incubation by liquid-chromatography-coupled mass spectrometry (LC–MS); details: 2 µM
# [2] = human gut metagenome, 24 h, 2 µM
# [3] = as §1, with “WLS-010” for “Z-025”, “human” for “rabbit”, “ERS12561743” for “ERS12561824”; details: 2 µM
# [4] = as §1, with “Z-017” for “Z-025”, “mouse” for “rabbit”, “ERS12561816” for “ERS12561824”; details: 2 µM
# [5] = human gut metagenome, 24 h, 2 µM; remark: listed apart in the source
# [6] = as §1, with “WLS-039” for “Z-025”, “human” for “rabbit”, “ERS12561746” for “ERS12561824”; details: 2 µM
# [7] = human gut metagenome, 24 h, 2 µM; remark: listed apart in the source
# [8] = human gut metagenome, 24 h, 2 µM; remark: listed apart in the source
# [9] = as §1, with “WLS-082” for “Z-025”, “human” for “rabbit”, “ERS12561751” for “ERS12561824”; details: 2 µM
# [10] = human gut metagenome, 24 h, 2 µM; remark: listed apart in the source
# [11] = human gut metagenome, 24 h, 2 µM; remark: listed apart in the source
# [12] = as §1, with “WLS-350” for “Z-025”, “human” for “rabbit”, “ERS12561789” for “ERS12561824”; details: 2 µM
# [13] = as §1, with “Z-010” for “Z-025”, “to” for “to rabbit gut”, “ERS12561810” for “ERS12561824”; details: 2 µM
# [14] = human gut metagenome, 24 h, 2 µM; remark: listed apart in the source
# [15] = human gut metagenome, 24 h, 2 µM; remark: listed apart in the source
# [16] = human gut metagenome, 24 h, 2 µM; remark: listed apart in the source
# [17] = as §1, with “WLS-007” for “Z-025”, “human” for “rabbit”, “ERS12561742” for “ERS12561824”; details: 2 µM
# [18] = as §1, with “WLS-240” for “Z-025”, “human” for “rabbit”, “ERS12561773” for “ERS12561824”; details: 2 µM
# [19] = human gut metagenome, 24 h, 2 µM; remark: listed apart in the source
# [20] = human gut metagenome, 24 h, 2 µM; remark: listed apart in the source
# Also: call rule not given here.
SMILES,Bacterial Biotransformation [1],Bacterial Biotransformation [2],Bacterial Biotransformation [3],Bacterial Biotransformation [4],Bacterial Biotransformation [5],Bacterial Biotransformation [6],Bacterial Biotransformation [7],Bacterial Biotransformation [8],Bacterial Biotransformation [9],Bacterial Biotransformation [10],Bacterial Biotransformation [11],Bacterial Biotransformation [12],Bacterial Biotransformation [13],Bacterial Biotransformation [14],Bacterial Biotransformation [15],Bacterial Biotransformation [16],Bacterial Biotransformation [17],Bacterial Biotransformation [18],Bacterial Biotransformation [19],Bacterial Biotransformation [20]
CO[C@]12C[C@@H](COC(=O)c3cncc(Br)c3)CN(C)[C@@H]1Cc1cn(C)c3cccc2c13 [NICERGOLINE],Compound metabolized,Compound NOT metabolized,Compound metabolized,Compound NOT metabolized,Compound NOT metabolized,Compound metabolized,Compound NOT metabolized,Compound NOT metabolized,Compound NOT metabolized,Compound NOT metabolized,Compound NOT metabolized,Compound NOT metabolized,Compound metabolized,Compound NOT metabolized,Compound NOT metabolized,Compound NOT metabolized,Compound NOT metabolized,Compound NOT metabolized,Compound NOT metabolized,Compound NOT metabolized
COc1ccc2c(c1OC)C(=O)O[C@@H]2[C@H]1c2c(cc3c(c2OC)OCO3)CCN1C [NOSCAPINE],Compound NOT metabolized,Compound NOT metabolized,Compound NOT metabolized,Compound NOT metabolized,Compound metabolized,Compound NOT metabolized,Compound NOT metabolized,Compound NOT metabolized,Compound NOT metabolized,Compound NOT metabolized,Compound NOT metabolized,Compound metabolized,Compound metabolized,Compound NOT metabolized,Compound NOT metabolized,Compound metabolized,Compound NOT metabolized,Compound metabolized,Compound NOT metabolized,Compound metabolized
CCN(CC)CC#CCOC(=O)C(O)(c1ccccc1)C1CCCCC1.Cl (stereo not given) [OXYBUTYNIN CHLORIDE],Compound NOT metabolized,Compound NOT metabolized,Compound metabolized,Compound NOT metabolized,Compound metabolized,Compound metabolized,Compound metabolized,Compound metabolized,Compound metabolized,Compound metabolized,Compound metabolized,Compound metabolized,Compound metabolized,Compound metabolized,Compound metabolized,Compound metabolized,Compound metabolized,Compound metabolized,Compound metabolized,Compound metabolized
Fc1ccc([C@@H]2CCNC[C@H]2COc2ccc3c(c2)OCO3)cc1 [PAROXETINE],Compound NOT metabolized,Compound NOT metabolized,Compound metabolized,Compound NOT metabolized,Compound metabolized,Compound metabolized,Compound NOT metabolized,Compound metabolized,Compound metabolized,Compound metabolized,Compound metabolized,Compound metabolized,Compound metabolized,Compound metabolized,Compound NOT metabolized,Compound metabolized,Compound NOT metabolized,Compound metabolized,Compound NOT metabolized,Compound metabolized
O=c1[nH]c2ccccc2n1C1CCN(CCCC(c2ccc(F)cc2)c2ccc(F)cc2)CC1 [PIMOZIDE],Compound metabolized,Compound NOT metabolized,Compound metabolized,Compound metabolized,Compound metabolized,Compound NOT metabolized,Compound metabolized,Compound metabolized,Compound metabolized,Compound metabolized,Compound metabolized,Compound metabolized,Compound metabolized,Compound metabolized,Compound NOT metabolized,Compound metabolized,Compound metabolized,Compound metabolized,Compound metabolized,Compound metabolized
CS(=O)(=O)O.OC(CCN1CCCCC1)(c1ccccc1)c1ccccc1 [PRIDINOL METHANESULFONATE],Compound NOT metabolized,Compound NOT metabolized,Compound NOT metabolized,Compound NOT metabolized,Compound NOT metabolized,Compound NOT metabolized,Compound NOT metabolized,Compound metabolized,Compound NOT metabolized,Compound metabolized,Compound NOT metabolized,Compound NOT metabolized,Compound NOT metabolized,Compound metabolized,Compound NOT metabolized,Compound metabolized,Compound NOT metabolized,Compound metabolized,Compound NOT metabolized,Compound metabolized
CC(CN1c2ccccc2Sc2ccccc21)N(C)C (stereo not given) [PROMETHAZINE],Compound metabolized,Compound NOT metabolized,Compound NOT metabolized,Compound NOT metabolized,Compound metabolized,Compound metabolized,Compound NOT metabolized,Compound NOT metabolized,Compound NOT metabolized,Compound metabolized,Compound NOT metabolized,Compound metabolized,Compound metabolized,Compound metabolized,Compound NOT metabolized,Compound metabolized,Compound NOT metabolized,Compound metabolized,Compound metabolized,Compound metabolized
OCCOCCN1CCN(C2=Nc3ccccc3Sc3ccccc32)CC1 [QUETIAPINE],Compound metabolized,Compound NOT metabolized,Compound NOT metabolized,Compound NOT metabolized,Compound NOT metabolized,Compound NOT metabolized,Compound metabolized,Compound metabolized,Compound NOT metabolized,Compound metabolized,Compound metabolized,Compound NOT metabolized,Compound NOT metabolized,Compound metabolized,Compound NOT metabolized,Compound metabolized,Compound NOT metabolized,Compound metabolized,Compound NOT metabolized,Compound metabolized
CCC(=O)NCC[C@@H]1CCc2ccc3c(c21)CCO3 [RAMELTEON],Compound NOT metabolized,Compound NOT metabolized,Compound metabolized,Compound NOT metabolized,Compound metabolized,Compound metabolized,Compound metabolized,Compound metabolized,Compound metabolized,Compound metabolized,Compound metabolized,Compound metabolized,Compound metabolized,Compound metabolized,Compound metabolized,Compound metabolized,Compound NOT metabolized,Compound metabolized,Compound metabolized,Compound metabolized
